Source: ChEMBL document CHEMBL1201862, “PubChem BioAssay data set” (2004)
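Each compound was tested at five concentrations against cells in 96-well plates for 48 hours. GI50: concentration for 50% inhibition of growth.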 Active and inactive are the calls of the source. No stated cut-off is given here; in the data, active = GI50 up to about 1.1 µM and inactive = higher.

What was measured:
Assay in all cases: inhibition of tumour cell growth, NCI panel, 48 h
[1] = system: 786-0
[2] = system: ACHN
[3] = system: CCRF-CEM
[4] = system: HOP-62
[5] = system: Hs-578T
[6] = system: IGROV-1
[7] = system: KM12
[8] = system: M14
[9] = system: NCI-H226
[10] = system: NCI-H460
[11] = system: NCI/ADR-RES
[12] = system: OVCAR-3
[13] = system: OVCAR-4
[14] = system: RPMI-8226
[15] = system: SN12C
[16] = system: T47D
[17] = system: TK-10
[18] = system: UACC-257
[19] = system: UACC-62
[20] = system: UO-31

Measured: GI50

Nc1ccc2[nH]c(C(=O)N3CC(CCl)c4c3cc(N)c3ccccc43)cc2c1 (stereo not given)
active: [1] < 10 nM | [2] < 10 nM | [3] < 10 nM | [4] < 10 nM | [5] 20.4 nM | [6] < 10 nM | [7] 11.4 nM | [8] 10.7 nM | [9] 10.5 nM | [10] < 10 nM | [11] < 10 nM | [12] 16.6 nM | [13] < 10 nM | [14] < 10.8 nM | [15] < 10 nM | [16] 11.9 nM | [17] < 10 nM | [18] 14.2 nM | [19] < 10 nM | [20] 11.4 nM
